Assay results: article PMC9516332 (Frontiers in Oncology, 2022)

Columns and labels:
Test in all cases: Kinase panel profiling at 1 µmol/L (MSA or IMAP), percentage inhibition
Format in all cases: biochemical
[1] = target: panel of 255 wild-type kinases (Homo sapiens, UniProt P22612); conditions: kinase PKACγ; 1 µmol/L single concentration; read-out: %-inhibition at 1 µmol/L, PKACγ
[2] = target: panel of 255 wild-type kinases (Homo sapiens, UniProt P16234); conditions: kinase PDGFRα; 1 µmol/L single concentration; read-out: %-inhibition at 1 µmol/L, PDGFRα
[3] = target: panel of 255 wild-type kinases (Homo sapiens, UniProt Q9H422); conditions: kinase HIPK3; 1 µmol/L single concentration; read-out: %-inhibition at 1 µmol/L, HIPK3
[4] = target: T1, panel of 255 wild-type kinases (Homo sapiens, UniProt P42680); conditions: kinase TEC; 1 µmol/L single concentration; read-out: %-inhibition at 1 µmol/L, TEC
T1 sequence (P42680 1-631): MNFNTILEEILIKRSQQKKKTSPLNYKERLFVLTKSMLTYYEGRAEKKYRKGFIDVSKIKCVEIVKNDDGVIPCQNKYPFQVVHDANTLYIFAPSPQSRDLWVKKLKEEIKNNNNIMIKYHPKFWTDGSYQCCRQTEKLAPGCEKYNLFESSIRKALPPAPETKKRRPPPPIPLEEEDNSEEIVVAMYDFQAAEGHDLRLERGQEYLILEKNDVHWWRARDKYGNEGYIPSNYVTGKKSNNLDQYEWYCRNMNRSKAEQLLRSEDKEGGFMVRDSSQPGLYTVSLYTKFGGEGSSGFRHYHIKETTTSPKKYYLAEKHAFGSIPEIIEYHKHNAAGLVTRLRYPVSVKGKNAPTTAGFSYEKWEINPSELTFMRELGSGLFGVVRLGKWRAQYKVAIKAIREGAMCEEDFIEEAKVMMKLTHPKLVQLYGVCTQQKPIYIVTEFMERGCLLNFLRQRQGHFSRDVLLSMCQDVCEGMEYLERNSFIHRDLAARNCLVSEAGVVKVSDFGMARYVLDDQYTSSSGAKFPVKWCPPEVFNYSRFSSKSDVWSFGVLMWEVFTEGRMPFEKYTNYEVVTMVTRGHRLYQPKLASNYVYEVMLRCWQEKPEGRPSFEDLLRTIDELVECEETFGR

[5] = target: panel of 255 wild-type kinases (Homo sapiens, UniProt P50613); conditions: CDK7/CycH/MAT1 kinase assay; 1 µmol/L single concentration; read-out: %-inhibition CDK7/CycH/MAT1
[6] = target: panel of 255 wild-type kinases (Homo sapiens, UniProt Q9BYP7); conditions: kinase WNK3; 1 µmol/L single concentration; read-out: %-inhibition at 1 µmol/L, WNK3
[7] = target: panel of 255 wild-type kinases (Homo sapiens, UniProt P07948); conditions: kinase LYNa; 1 µmol/L single concentration; read-out: %-inhibition at 1 µmol/L, LYNa
[8] = target: panel of 255 wild-type kinases (Homo sapiens, UniProt P43405); conditions: kinase SYK; 1 µmol/L single concentration; read-out: %-inhibition at 1 µmol/L, SYK
[9] = target: T2, panel of 255 wild-type kinases (Homo sapiens, UniProt Q8TD19); conditions: NEK9; 1 µmol/L single concentration; read-out: %-inhibition, NEK9
T2 sequence (Q8TD19 1-979): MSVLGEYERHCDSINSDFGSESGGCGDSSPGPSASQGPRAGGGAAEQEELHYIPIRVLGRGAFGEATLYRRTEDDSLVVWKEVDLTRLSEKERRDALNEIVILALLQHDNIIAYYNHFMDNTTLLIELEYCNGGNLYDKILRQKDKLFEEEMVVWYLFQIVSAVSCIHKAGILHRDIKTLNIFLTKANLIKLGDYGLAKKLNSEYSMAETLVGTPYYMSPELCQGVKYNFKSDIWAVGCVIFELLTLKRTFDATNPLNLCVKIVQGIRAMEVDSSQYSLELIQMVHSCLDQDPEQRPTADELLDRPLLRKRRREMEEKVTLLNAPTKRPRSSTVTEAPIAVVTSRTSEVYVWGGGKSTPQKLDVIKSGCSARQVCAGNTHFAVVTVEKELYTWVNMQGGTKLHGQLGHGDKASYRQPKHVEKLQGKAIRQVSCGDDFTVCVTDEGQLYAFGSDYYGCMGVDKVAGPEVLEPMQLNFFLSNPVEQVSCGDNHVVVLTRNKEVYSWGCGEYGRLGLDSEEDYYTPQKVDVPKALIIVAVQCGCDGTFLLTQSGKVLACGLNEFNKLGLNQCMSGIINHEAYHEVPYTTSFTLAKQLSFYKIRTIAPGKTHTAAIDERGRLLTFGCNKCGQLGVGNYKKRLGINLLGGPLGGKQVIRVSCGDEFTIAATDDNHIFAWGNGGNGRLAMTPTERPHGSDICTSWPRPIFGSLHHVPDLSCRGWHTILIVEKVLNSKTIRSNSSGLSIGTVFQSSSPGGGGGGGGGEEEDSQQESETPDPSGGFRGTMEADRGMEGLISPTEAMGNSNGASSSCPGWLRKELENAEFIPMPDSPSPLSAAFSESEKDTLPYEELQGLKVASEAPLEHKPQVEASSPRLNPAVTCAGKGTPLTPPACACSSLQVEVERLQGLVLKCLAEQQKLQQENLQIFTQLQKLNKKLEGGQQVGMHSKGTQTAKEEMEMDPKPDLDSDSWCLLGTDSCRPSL

[10] = target: panel of 255 wild-type kinases (Homo sapiens, UniProt P05771); conditions: kinase PKCβ1; 1 µmol/L single concentration; read-out: %-inhibition at 1 µmol/L, PKCβ1
[11] = target: panel of 255 wild-type kinases (Homo sapiens, UniProt Q9UQM7); conditions: CaMK2α kinase assay; 1 µmol/L single concentration; read-out: %-inhibition CaMK2α

inhibition at 1 µM [1] [%]	inhibition at 1 µM [2] [%]	inhibition at 1 µM [3] [%]	inhibition at 1 µM [4] [%]	inhibition at 1 µM [5] [%]	inhibition at 1 µM [6] [%]	inhibition at 1 µM [7] [%]	inhibition at 1 µM [8] [%]	inhibition at 1 µM [10] [%]	inhibition at 1 µM [11] [%]	SMILES	inhibition at 1 µM [9] [%]
-2.63	96	-3	37	6	-1.49	60	7.5	-0.445	1.43	COc1ccc(CN2C3CC2CN(c2ccc(-c4cc(OCC(C)(C)O)cn5ncc(C#N)c45)cn2)C3)cn1 [selpercatinib]	-0.802
-7.38	0.405	7	-0.644	-4	-3	1.8	-23	7	-1.21	Cc1nc(NC(=O)N2CCC[C@H]2C(N)=O)sc1-c1ccnc(C(C)(C)C(F)(F)F)c1 [alpelisib]	2.8
-0.548	30	2.27	18	6	3	7	-0.549	0.869	-3	Cc1cc(Nc2ncnc3ccc(NC4=NC(C)(C)CO4)cc23)ccc1Oc1ccn2ncnc2c1 [tucatinib]	-2
-4	25	3	16	1.7	-1.43	6.53	-12	2.44	-1.34	Cn1cnc2c(F)c(Nc3ccc(Br)cc3Cl)c(C(=O)NOCCO)cc21 [selumetinib]	0.727
12	69	3.75	20	3.35	-2.62	79	-8	3.74	-1.13	COc1cc2ncnc(Nc3ccc(F)c(Cl)c3)c2cc1NC(=O)/C=C/CN1CCCCC1 [dacomitinib]	-1.05
10	99	9	95	19	0.505	92	85	2.58	-1.59	CO[C@]1(C(=O)N[C@@H](C)c2ccc(-n3cc(F)cn3)nc2)CC[C@H](c2nc(C)cc(Nc3cc(C)[nH]n3)n2)CC1 [pralsetinib]	16

SMILES	inhibition at 1 µM [1] [%]	inhibition at 1 µM [2] [%]	inhibition at 1 µM [3] [%]	inhibition at 1 µM [4] [%]	inhibition at 1 µM [5] [%]	inhibition at 1 µM [6] [%]	inhibition at 1 µM [7] [%]	inhibition at 1 µM [8] [%]	inhibition at 1 µM [10] [%]	inhibition at 1 µM [11] [%]	inhibition at 1 µM [9] [%]
CCN1C(=O)N(c2c(F)c(OC)cc(OC)c2F)Cc2cnc3[nH]c(CN4CCOCC4)cc3c21 [pemigatinib]	-3.56	69	0.456	-1.55	-12	-0.586	66	-4.26	0.544	5	-1.57
